Assay results: patent US20210106703A1, “RADIOIMMUNOCONJUGATES IN COMBINATION WITH OTHER DRUGS AS TREATMENT AGAINST NHL” (Nordic Nanovector ASA, priority 2017, published 2021)
Like-named read-outs stand apart in the source and are kept apart here.

Key:
Test in all cases: Alamar Blue cytotoxicity study
SUDHL4 cells = assay type: cell-based, human; settings: for IC50: Homo sapiens
Procedure: Cells were incubated with 0.25, 0.5, 1, 2.5 or 5 μg/ml of Humalutin in cell culture flasks and incubated at 37° C./5% CO2. After 18-20 hours cells were washed and resuspended in fresh medium. Cell bound activity after washing was measured using a calibrated gamma detector (Cobra II auto-gamma detector, Packard Instrument Company, Meriden, Conn., USA). Cell concentration and viability was also measured after washing using Guava ViaCount Cell Dispersal Reagent for Flow Cytometry (Merck GaA, Darmstadt, Germany) and measured in a Guava EasyCyte 12HT (Merck KGaA, Darmstadt, Germany) to determine how well the cells survived the incubation. Cells were seeded in 96 well plates. […]
(§1) Cells were treated with either Humalutin, venetoclax or a combination of both and seeded into 96 well-plates. At each time point after treatment, cells were incubated with Alamar Blue (Thermo Fisher, DALL1100) for 4 hours and fluorescence measurements were performed using a multiplate reader Fluoroskan ascent FL to assess cell proliferation and viability. All experiments were done in duplicates using 2 samples in each experiment. Data were normalized to the untreated controls.
Cells were incubated with either 0, 0.5 μg/ml or 1 μg/ml Humalutin and the same procedure as described before for treatment with Humalutin alone and venetoclax alone was followed.
(§2) The Chou-Talalay model was used for synergy calculations using the Compusyn software. R (goodness of fit) was calculated for the individual treatments and should be over 0.90 in in vitro culture experiments in order to use with confidence the calculated combination index (CI). The CI is an indication of synergy: 0-0.9 is considered synergy. Synergysm grading was used as described in WO2006004917A2.
(§3) Cells were incubated with 0.25, 0.5, 1, 2.5 or 5 μg/ml of Humalutin in cell culture flasks and incubated at 37° C./5% CO2. After 18-20 hours cells were washed and resuspended in fresh medium. Cell bound activity after washing was measured using a calibrated gamma detector (Cobra II auto-gamma detector, Packard Instrument Company, Meriden, Conn., USA). Cell concentration and viability were also measured after washing using Guava ViaCount Cell Dispersal Reagent for Flow Cytometry (Merck GaA, Darmstadt, Germany) and measured in a Guava EasyCyte 12HT (Merck KGaA, Darmstadt, Germany) to determine how well the cells survived the incubation. Cells were seeded in 96 well plates. Alamar blue viability measurements were performed 120 h after seeding.
(§4) Cells were incubated with either 0 (control), 0.5 μg/ml or 1 μg/ml Humalutin for 18 to 20 hours. Cells were then washed and resuspended in fresh medium.

DOHH2 cells = assay type: cell-based, human; settings: for Combination Index (Chou-Talalay): 120 h; for IC50: Homo sapiens
Procedure: as §1, with “olaparib” for “venetoclax”
(§5) Cells were incubated with 0.25, 0.5, 1, 2.5 or 5 μg/ml of Humalutin in cell culture flasks and incubated at 37° C./5% CO2. After 18-20 hours cells were washed and resuspended in fresh medium. Cell bound activity after washing was measured using a calibrated gamma detector (Cobra II auto-gamma detector, Packard Instrument Company, Meriden, Conn., USA). Cell concentration and viability was also measured after washing using Guava ViaCount Cell Dispersal Reagent for Flow Cytometry (Merck GaA, Darmstadt, Germany) and measured in a Guava EasyCyte 12HT (Merck KGaA, Darmstadt, Germany) to determine how well the cells survived the incubation. Cells were seeded in 96 well plates.
(§6) Cells were seeded in 96 well plates pre-coated with from 1 to 100 μM olaparib in 0.2 ml medium and incubated at 37° C./5% CO2 for 72 hours before the cytotoxic effect was measured using alamar blue cell viability assay.
(§7) Cells were incubated with either 0, 0.5 μg/ml or 1 μg/ml Humalutin and the same procedure as described before for treatment with humalutin alone and olaparib alone was followed. Concentrations of olaparib used were between 1 and 100 μM.
as §2, with “use” for “use with confidence”, “WO2006004917A2. […]” for “WO2006004917A2.”
as §3

Granta 519 cells = assay type: cell-based, human; settings: for Combination Index (Chou-Talalay): Granta, 120 h; for IC50: Homo sapiens
Procedure: as §1, with “olaparib” for “venetoclax”
as §5, §6, §7
as §2, with “use” for “use with confidence”, “WO2006004917A2. […]” for “WO2006004917A2.”
as §3

U2932 cells = assay type: cell-based, human; settings: for IC50: Homo sapiens
Procedure: as §1, with “olaparib” for “venetoclax”
as §5, §6, §7
as §2, with “use” for “use with confidence”, “WO2006004917A2. […]” for “WO2006004917A2.”
as §3, §4

WSU-DLCL2 cells = assay type: cell-based; settings: Homo sapiens, WSUDLCL2; WSU-DLCL2, 72 h incubation after seeding
Procedure: as §1, with “olaparib” for “venetoclax”
as §5
(§8) Cells were seeded in 96 well plates pre-coated with from 1 to 100 μM olaparib in 0.2 ml medium and incubated at 37° C./5% CO2 for 72 hours before the cytotoxic effect was measured using alamar blue cell viability assay. […]

Rec-1 cells = assay type: cell-based; settings: Homo sapiens, Rec1; Rec-1, 72 h incubation after seeding
Procedure: as §1, with “olaparib” for “venetoclax”
as §5, §8

SMILES: O=C(c1cc(Cc2n[nH]c(=O)c3ccccc23)ccc1F)N1CCN(C(=O)C2CC2)CC1 [olaparib]
- IC50 (SUDHL4 cells; SU-DHL-4, read-out: IC50 at 120 h, SUDHL-4, 120 h incubation after seeding): 22100 nM
- IC50 (SUDHL4 cells; SU-DHL-4, SUDHL4, 72 h incubation after seeding, read-out: IC50): 1040 nM
- Synergism grade by Combination Index, combination with Humalutin (SUDHL4 cells; SUDHL4, Humalutin 0.5 or 1 μg/ml, 72 h): moderate antagonism
- Combination Index (Chou-Talalay) (DOHH2 cells; DOHH2, olaparib dose 2 + Humalutin 1 μg/ml): 1.34
- Combination Index (Chou-Talalay) (DOHH2 cells; DOHH2, olaparib dose 4 + Humalutin 1 μg/ml): 0.64
- Combination Index (Chou-Talalay) (DOHH2 cells; DOHH2, olaparib dose 8 + Humalutin 1 μg/ml): 0.43
- Combination Index (Chou-Talalay) (DOHH2 cells; DOHH2, olaparib dose 10 + Humalutin 1 μg/ml): 0.34
- IC50 (DOHH2 cells; DOHH-2, read-out: IC50 at 120 h, DOHH2, 120 h incubation after seeding): 7560 nM
- IC50 (DOHH2 cells; DOHH-2, DOHH2, 72 h incubation after seeding, read-out: IC50): 2060 nM
- Synergism grade by Combination Index, combination with Humalutin (Granta 519 cells; Granta 519, Humalutin 0.5 or 1 μg/ml, 72 h): very strong synergism
- Combination Index (Chou-Talalay) (Granta 519 cells; olaparib dose 2 + Humalutin 1 μg/ml): 1.77
- Combination Index (Chou-Talalay) (Granta 519 cells; olaparib dose 4 + Humalutin 1 μg/ml): 0.15
- Combination Index (Chou-Talalay) (Granta 519 cells; olaparib dose 8 + Humalutin 1 μg/ml): 0.06
- Combination Index (Chou-Talalay) (Granta 519 cells; olaparib dose 10 + Humalutin 1 μg/ml): 0.10
- IC50 (Granta 519 cells; read-out: IC50 at 120 h, Granta 519, 120 h incubation after seeding): 15000 nM
- IC50 (Granta 519 cells; Granta 519, 72 h incubation after seeding, read-out: IC50): 2680 nM
- IC50 (U2932 cells; read-out: IC50 at 120 h, U2932, 120 h incubation after seeding): 89100 nM
- IC50 (U2932 cells; U2932, 72 h incubation after seeding, read-out: IC50): 1930 nM
- Synergism grade by Combination Index, combination with Humalutin (U2932 cells; U2932, Humalutin 0.5 or 1 μg/ml, 72 h): very strong synergism
- IC50 (WSU-DLCL2 cells): 1260 nM
- IC50 (Rec-1 cells): 721 nM
